Assay results reported in patent US11576918B2, “Pharmaceutical composition and extract of Dendrobii Caulis with eye care effect and uses of preparing the same thereof” (AMX Pharma Inc., priority 2019, dated 2023).
Where two headings read alike, the source gives them in different places.

Key:
[1] = system: ARPE-19 cells; type: cell-based; set-up: protective activity / toxic reaction: dose or concentration left out as unconfirmed; settings: for protection effect (cell viability): 500 μM hydrogen peroxide, 24 h pre-treatment
Experimental: (§1) The present experiment took human retinal cell (ARPE-19) and rat retinal ganglion cells (RGC-5) as model cell lines. ARPE-19 cells were cultured in DMEM-F12 medium containing 10% fetal bovine serum (FBS), 0.2% sodium bicarbonate and antibiotics (penicillin 100 units/ml, streptomycin 100 μg/ml); RGC-5 were cultured in DMEM medium containing 10% fetal bovine serum (FBS) and antibiotics (penicillin 100 units/ml, streptomycin 100 μg/ml).
(§2) ARPE-19 and RGC-5 cells were seeded in 96-well plate. After 1 day, the cells were pre-treated with different concentrations of Dendrobii Caulis extract (A or A-2) or compounds 1-4 for 24 hours, and then exposed to (1) hydrogen peroxide (H2O2; 500 μM)) or (2) hypoxic environment or (3) ultraviolet (UV) irradiation (30 μJ/cm^2; three consecutive shots, for 60 seconds each with 60 second intervals, to trigger cell death. After 24-h culture, medium was removed and replaced with 10% precooled trichloroacetic acid (TCA) to fix cells at 4° C. for 1 h, then washed with ddH2O and dried. Next, 0.4% SRB 100 μl (w/v, in 1% acetic acid) was added to each well to stain the cells for 60 minutes, then washed several times with 1% acetic acid and dried plate.—The SRB in cells was dissolved in 150 μl of 10 mM Tris-HCl and measured the absorbance at 540 nm in an ELISA reader. The survival rate was calculated by comparing each treatment with the untreated control group as the 100% survival rate.

[2] = system: RGC-5 cells; type: cell-based; set-up: toxic reaction / protective activity: dose or concentration left out as unconfirmed; settings: for protection effect (cell viability): 500 μM hydrogen peroxide, 24 h pre-treatment
Experimental: as §1, §2

[3] = system: zebrafish cataract; assay: UVC-induced zebrafish cataract test; type: in vivo
Experimental: Zebrafish were randomly grouped (12 for each group) into blank control group, UVC irradiation group (300 μJ/cm^2) and UVC irradiation+treating group with A-2 at 0.495, 0.99, and 4.95 mg/ml three dosages or with compound 1 at 0.1 and 1.0 mM two dosages. The zebrafish were pre-fed with A-2 or compound 1 for one week, then subjected to UVC irradiation to observe the crystal change of the zebrafish daily. Before irradiating with UVC, the zebrafish is under anesthesia to expose only its eye to UVC (300 μJ/cm^2) for about 3 minutes, consecutively holding for seven days. The zebrafish eyes were observed every day. The severity of zebrafish cataract was scored from 1 to 3, depending on the clear level of the crystal body, in which the higher score represents the more turbidity of the crystal body. The scores are then plotted.

[4] = system: retinal damage; settings: absence of oxygen; recent study; cited from earlier work
[5] = system: optic nerve cell strains; settings: some studies; cited from earlier work
[6] = 1-10 mM, hydrogen peroxide, hypoxia or UV treatment
[7] = hydrogen peroxide, hypoxia or UV irradiation
[8] = hydrogen peroxide, hypoxia or UV treatment
[9] = hydrogen peroxide and ultraviolet light

## CC(C)(O)[C@H]1C2C(=O)OC1[C@@H](O)[C@]1(C)C2CC[C@H]1COC1OC(CO)C(O)C(O)C1O (stereo partly drawn) [compound 1, 2β, 3β, 11, 12-tetrahydroxypicrotoxan-3(15)-olide 11-O-β-D-glucopyranoside]
[1]
  toxic reaction: no toxic reaction
[1]; hypoxia or UV irradiation
  protection effect (cell viability): can protect
[1]; [6]
  concentration dependence of protective activity: concentration-dependent protective activity
[1]; [7]
  protective effect compared with lutein: superior to lutein
[1]; [8]
  protective activity: more than 80%
[2]
  toxic reaction: no toxic reaction
[2]; hypoxia or UV irradiation
  protection effect (cell viability): can protect
[2]; [6]
  concentration dependence of protective activity: concentration-dependent protective activity
[2]; [7]
  protective effect compared with lutein: superior to lutein
[2]; [8]
  protective activity: more than 80%
[3]; 1 mM, fourth day
  occurrence of UV-induced cataract: almost no cataract occurred
[3]; 0.1 and 1.0 mM, pre-fed one week
  occurrence of UV-induced cataract: can significantly reduce the occurrence of zebrafish cataract

## CC(C)[C@@H]1[C@H]2OC(=O)[C@@H]1[C@@H]1CC[C@@H]3CN(C)[C@H]2[C@@]31C [compound 3, dendrobine]
[1]; hypoxia or UV irradiation
  protection effect (cell viability): does not show enough protective activity
[2]; hypoxia or UV irradiation
  protection effect (cell viability): does not show enough protective activity

## CC(C)(O)[C@H]1C2C(=O)OC1[C@@H](O)[C@]1(C)C2CC[C@H]1CO (stereo partly drawn) [compound 2, 2β, 3β, 11, 12-tetrahydroxypicrotoxan-3 (15)-olide]
[1]; [9]
  protection (cell viability): can also protect
  protective effect compared with lutein: comparable to lutein
[2]; [9]
  protection (cell viability): can also protect
  protective effect compared with lutein: comparable to lutein

## COc1cc(CCc2cc(OC)c(O)c(OC)c2)ccc1O [moscatilin]
[4]
  protection of retinal damage: can protect retinal damage in the absence of oxygen
[5]
  toxicity to optic nerve cell strains: toxic
